Experiments:
[1] = tested on: NCI human cancer cell-lines; assay: In vitro inhibition of growth in human cancer cell lines (all cell groups); assay type: cell-based; conditions: on average, all cell groups tested
SF-268 = assay: NCI human cancer cell line growth inhibition: SF-268; assay type: cell-based; conditions: SF-268, CNS
SK-MEL-2 = assay: NCI human cancer cell line growth inhibition: SK-MEL-2; assay type: cell-based; conditions: SK-MEL-2, Melanoma
SNB-19 = assay: NCI human cancer cell line growth inhibition: SNB-19; assay type: cell-based; conditions: SNB-19, CNS
CCRF-CEM = assay: NCI human cancer cell line growth inhibition: CCRF-CEM; assay type: cell-based; conditions: Leukemia
NCI-H460 = assay type: cell-based, human; conditions: NCI-H460, NSC Lung
HT29 = assay: NCI human cancer cell line growth inhibition: HT29; assay type: cell-based; conditions: HT29, Colon
786-0 = assay: NCI human cancer cell line growth inhibition: 786-0; assay type: cell-based; conditions: 786-0, Renal
SF-539 = assay: NCI human cancer cell line growth inhibition: SF-539; assay type: cell-based; conditions: SF-539, CNS
RPMI-8226 = assay: NCI human cancer cell line growth inhibition: RPMI-8226; assay type: cell-based; conditions: RPMI-8226, Leukemia
LOX IMVI = assay: NCI human cancer cell line growth inhibition: LOX IMVI; assay type: cell-based; conditions: Melanoma
SR = assay: NCI human cancer cell line growth inhibition: SR; assay type: cell-based; conditions: Leukemia
K-562 = assay: NCI human cancer cell line growth inhibition: K-562; assay type: cell-based; conditions: K-562, Leukemia
SF-295 = assay: NCI human cancer cell line growth inhibition: SF-295; assay type: cell-based; conditions: SF-295, CNS
NCI/ADR-RES = assay type: cell-based, human; conditions: Homo sapiens, Breast, read-out: Growth inhibition (GI50) (converted)
HOP-62 = assay: NCI human cancer cell line growth inhibition: HOP-62; assay type: cell-based; conditions: Homo sapiens; HOP-62, NSC Lung
OVCAR-8 = assay: NCI human cancer cell line growth inhibition: OVCAR-8; assay type: cell-based; conditions: OVCAR-8, Ovarian
A549/ATCC = assay: NCI human cancer cell line growth inhibition: A549/ATCC; assay type: cell-based; conditions: NSC Lung
SK-MEL-28 = assay: NCI human cancer cell line growth inhibition: SK-MEL-28; assay type: cell-based; conditions: SK-MEL-28, Melanoma
MDA-MB-435 = assay: NCI human cancer cell line growth inhibition: MDA-MB-435; assay type: cell-based
PKCδ-C1B = biological target: T1, PKCδ-C1B (Mus musculus, UniProt P28867); assay: PKCδ-C1B assay; assay type: binding
T1 construct: made in house
Protocol: Phosphatidyl serine vesicles are prepared by the addition of phosphatidyl serine (10 mg/mL in chloroform, 0.4 mL) to a glass test tube followed by removal of the chloroform under a stream of nitrogen (5 min). […] The resulting solution is stored over ice. […] Stock solutions of compounds are diluted with absolute ethanol in glass in serial fashion. […] The tubes are incubated at 37° C. for 90 min. and then put on ice for 5 min. Each tube is then filtered separately through a pre-soaked filter disc. […] The filter is subsequently rinsed with cold 20 mM TRIS buffer (5 mL) dropwise. […] The filters are immediately counted in a scintillation counter (Beckman LS 6000SC). Counts per minute are averaged among three trials at each concentration.

HS 578T = assay: NCI human cancer cell line growth inhibition: HS 578T; assay type: cell-based; conditions: Breast
U251 = assay: NCI human cancer cell line growth inhibition: U251; assay type: cell-based; conditions: U251, CNS
PC-3 = assay: NCI human cancer cell line growth inhibition: PC-3; assay type: cell-based; conditions: PC-3, Prostate
CAKI-1 = assay: NCI human cancer cell line growth inhibition: CAKI-1; assay type: cell-based; conditions: CAKI-1, Renal
KM12 = assay: NCI human cancer cell line growth inhibition: KM12; assay type: cell-based; conditions: KM12, Colon

T1 sequence (P28867 231-281 limits assumed): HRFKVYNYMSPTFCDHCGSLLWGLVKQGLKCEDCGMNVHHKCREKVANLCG

## CCCCCCCC(=O)O[C@H]1/C(=C/C(=O)OC)C[C@H]2C[C@H](CO)OC(=O)C[C@H](O)C[C@@H]3CCCC(CC4CCO[C@H](/C=C/C(C)(C)[C@]1(O)O2)O4)O3 [Formula IIa (702.1)]
[1]
  potency compared with bryostatin-1: at least as potent, on average, as bryostatin-1
SF-268; Homo sapiens
  GI50: 10.7 µM
SF-268
  Difference (GI50 desmethyl vs Bryo-1): 0.13
SK-MEL-2; Homo sapiens
  GI50: 9.55 µM
SK-MEL-2
  Difference (GI50 desmethyl vs Bryo-1): 0.18
SNB-19; Homo sapiens
  GI50: 6.31 µM
SNB-19
  Difference (GI50 desmethyl vs Bryo-1): −0.20
CCRF-CEM; Homo sapiens
  GI50: 1.55 µM
CCRF-CEM
  Difference (GI50 desmethyl vs Bryo-1): −0.51
NCI-H460; Homo sapiens, read-out: Growth inhibition (GI50)
  GI50: < 0.01 µM
NCI-H460
  Difference (GI50 desmethyl vs Bryo-1): −2.40
  more active than bryostatin-1 by: more than 2 orders of magnitude
HT29
  Difference (GI50 desmethyl vs Bryo-1): −0.25
HT29; Homo sapiens, HT-29
  GI50: 2.82 µM
786-0
  Difference (GI50 desmethyl vs Bryo-1): −0.26
786-0; Homo sapiens
  GI50: 3.47 µM
SF-539; Homo sapiens
  GI50: 1.7 µM
SF-539
  Difference (GI50 desmethyl vs Bryo-1): −0.77
RPMI-8226; Homo sapiens
  GI50: 1.51 µM
RPMI-8226
  Difference (GI50 desmethyl vs Bryo-1): −0.82
LOX IMVI; Homo sapiens
  GI50: 3.39 µM
LOX IMVI
  Difference (GI50 desmethyl vs Bryo-1): −0.37
SR; Homo sapiens
  GI50: 7.94 µM
SR
  Difference (GI50 desmethyl vs Bryo-1): −0.10
K-562; Homo sapiens, K562
  GI50: 0.0316 µM
K-562
  Difference (GI50 desmethyl vs Bryo-1): −2.10
  more active than bryostatin-1 by: more than 2 orders of magnitude
SF-295; Homo sapiens
  GI50: 0.891 µM
SF-295
  Difference (GI50 desmethyl vs Bryo-1): −0.85
NCI/ADR-RES
  GI50: 18.2 µM
HOP-62
  GI50: 16.2 µM
OVCAR-8; Homo sapiens
  GI50: 17 µM
OVCAR-8
  Difference (GI50 desmethyl vs Bryo-1): 0.33
A549/ATCC; Homo sapiens
  GI50: 0.24 µM
A549/ATCC
  Difference (GI50 desmethyl vs Bryo-1): −1.42
SK-MEL-28; Homo sapiens
  GI50: 21.4 µM
SK-MEL-28
  Difference (GI50 desmethyl vs Bryo-1): 0.43
MDA-MB-435; Homo sapiens, MDA-MB-435, Breast
  GI50: 0.0219 µM
MDA-MB-435; MDA-MB435 (breast)
  more active than bryostatin-1 by: more than 2 orders of magnitude
MDA-MB-435; MDA-MB-435, Breast
  Difference (GI50 desmethyl vs Bryo-1): −2.56
PKCδ-C1B
  Ki: 0.0003 ± 7e-05 µM
PKCδ-C1B; 702.1 vs corresponding C26 methyl-containing analogue, 48, 49 among C20 ester analogues
  activity in PKCδ-C1B assay compared with other analogues: significantly higher activity
HS 578T
  Difference (GI50 desmethyl vs Bryo-1): 0.02
HS 578T; Homo sapiens
  GI50: 6.61 µM
U251; Homo sapiens, U-251
  GI50: 3.98 µM
U251
  Difference (GI50 desmethyl vs Bryo-1): −0.30
PC-3; Homo sapiens
  GI50: 2.51 µM
PC-3
  Difference (GI50 desmethyl vs Bryo-1): −0.30
CAKI-1
  Difference (GI50 desmethyl vs Bryo-1): −0.30
CAKI-1; Homo sapiens
  GI50: 2 µM
KM12; Homo sapiens
  GI50: 4.57 µM
KM12
  Difference (GI50 desmethyl vs Bryo-1): −0.14

From US7256286B2, “Bryostatin analogues, synthetic methods and uses” (The Board of Trustees of the Leland Stanford Junior …, priority 1999, dated 2007)
